In patent US20230382925A1, “MODULATORS OF CYSTIC FIBROSIS TRANSMEMBRANE CONDUCTANCE REGULATOR” (VERTEX PHARMACEUTICALS INCORPORATED, priority 2020, published 2023):

Target: T1, CFTR (Homo sapiens, UniProt P13569, DEL508-508)
T1 construct: human bronchial epithelial (HBE) cells derived from CF subjects heterozygous for F508del; endogenous in cells; host or cells: primary human bronchial epithelial cells from CF subjects (F508del/MF-HBE)
Assay: HBE assay: Ussing chamber assay of CFTR-mediated short-circuit currents (F508del/MF-HBE, with 1 μM Ivacaftor)
Type: cell-based
Settings: F508del/MF-HBE cells, 18-24 hours, 20% human serum; for EC50: range of concentrations with 1 μM Ivacaftor; for HBE Max Activity: with 1 μM Ivacaftor, compared to known Vertex corrector with 18 μM Tezacaftor and 1 μM Ivacaftor; for HBE Activity at 10 μM: single fixed concentration of 10 μM with 1 μM Ivacaftor
Description: 1. Ussing Chamber Assay of CFTR-mediated short-circuit currents
Ussing chamber experiments were performed using human bronchial epithelial (HBE) cells derived from CF subjects heterozygous for F508del and a minimal function CFTR mutation (F508del/MF-HBE) and cultured as previously described (Neuberger T, Burton B, Clark H, Van Goor F Methods Mol Biol 2011:741:39-54). After four days the apical media was removed, and the cells were grown at an air liquid interface for >14 days prior to use.
To isolate the CFTR-mediated short-circuit (ISC) current, F508del/MF-HBE grown on Costar® Snapwell™ cell culture inserts were mounted in an Ussing chamber and the transepithelial ISC was measured under voltage-clamp recording conditions (Vhold=0 mV) at 37° C. The basolateral solution contained (in mM) 145 NaCl, 0.83 K2HPO4, 3.3 KH2PO4, 1.2 MgCl2, 1.2 CaCl2), 10 Glucose, 10 HEPES (pH adjusted to 7.4 with NaOH) and the apical solution contained (in mM) 145 NaGluconate, 1.2 MgCl2, 1.2 CaCl2), 10 glucose, 10 HEPES (pH adjusted to 7.4 with NaOH) and 30 μM amiloride to block the epithelial sodium channel. Forskolin (20 μM) was added to the apical surface to activate CFTR, followed by apical addition of a CFTR inhibitor cocktail consisting of BPO, GlyH-101, and CFTR inhibitor 172 (each at 20 μM final assay concentration) to specifically isolate CFTR currents. The CFTR-mediated ISC (μA/cm^2) for each condition was determined from the peak forskolin response to the steady-state current following inhibition.
2. Identification of Corrector Compounds
The activity of the CFTR corrector compounds on the CFTR-mediated ISC was determined in Ussing chamber studies as described above. The F508del/MF-HBE cell cultures were either incubated with the corrector compounds at a range of concentrations in combination with 1 μM Ivacaftor or were incubated with the corrector compounds at a single fixed concentration of 10 μM in combination with 1 μM Ivacaftor for 18-24 hours at 37° C. and in the presence of 20% human serum. The concentration of corrector compounds with 1 μM Ivacaftor during the 18-24 hours incubations was kept constant throughout the Ussing chamber measurement of the CFTR-mediated ISC to ensure compounds were present throughout the entire experiment.

T1 sequence (P13569 with tags, fused parts or gaps DEL508-508): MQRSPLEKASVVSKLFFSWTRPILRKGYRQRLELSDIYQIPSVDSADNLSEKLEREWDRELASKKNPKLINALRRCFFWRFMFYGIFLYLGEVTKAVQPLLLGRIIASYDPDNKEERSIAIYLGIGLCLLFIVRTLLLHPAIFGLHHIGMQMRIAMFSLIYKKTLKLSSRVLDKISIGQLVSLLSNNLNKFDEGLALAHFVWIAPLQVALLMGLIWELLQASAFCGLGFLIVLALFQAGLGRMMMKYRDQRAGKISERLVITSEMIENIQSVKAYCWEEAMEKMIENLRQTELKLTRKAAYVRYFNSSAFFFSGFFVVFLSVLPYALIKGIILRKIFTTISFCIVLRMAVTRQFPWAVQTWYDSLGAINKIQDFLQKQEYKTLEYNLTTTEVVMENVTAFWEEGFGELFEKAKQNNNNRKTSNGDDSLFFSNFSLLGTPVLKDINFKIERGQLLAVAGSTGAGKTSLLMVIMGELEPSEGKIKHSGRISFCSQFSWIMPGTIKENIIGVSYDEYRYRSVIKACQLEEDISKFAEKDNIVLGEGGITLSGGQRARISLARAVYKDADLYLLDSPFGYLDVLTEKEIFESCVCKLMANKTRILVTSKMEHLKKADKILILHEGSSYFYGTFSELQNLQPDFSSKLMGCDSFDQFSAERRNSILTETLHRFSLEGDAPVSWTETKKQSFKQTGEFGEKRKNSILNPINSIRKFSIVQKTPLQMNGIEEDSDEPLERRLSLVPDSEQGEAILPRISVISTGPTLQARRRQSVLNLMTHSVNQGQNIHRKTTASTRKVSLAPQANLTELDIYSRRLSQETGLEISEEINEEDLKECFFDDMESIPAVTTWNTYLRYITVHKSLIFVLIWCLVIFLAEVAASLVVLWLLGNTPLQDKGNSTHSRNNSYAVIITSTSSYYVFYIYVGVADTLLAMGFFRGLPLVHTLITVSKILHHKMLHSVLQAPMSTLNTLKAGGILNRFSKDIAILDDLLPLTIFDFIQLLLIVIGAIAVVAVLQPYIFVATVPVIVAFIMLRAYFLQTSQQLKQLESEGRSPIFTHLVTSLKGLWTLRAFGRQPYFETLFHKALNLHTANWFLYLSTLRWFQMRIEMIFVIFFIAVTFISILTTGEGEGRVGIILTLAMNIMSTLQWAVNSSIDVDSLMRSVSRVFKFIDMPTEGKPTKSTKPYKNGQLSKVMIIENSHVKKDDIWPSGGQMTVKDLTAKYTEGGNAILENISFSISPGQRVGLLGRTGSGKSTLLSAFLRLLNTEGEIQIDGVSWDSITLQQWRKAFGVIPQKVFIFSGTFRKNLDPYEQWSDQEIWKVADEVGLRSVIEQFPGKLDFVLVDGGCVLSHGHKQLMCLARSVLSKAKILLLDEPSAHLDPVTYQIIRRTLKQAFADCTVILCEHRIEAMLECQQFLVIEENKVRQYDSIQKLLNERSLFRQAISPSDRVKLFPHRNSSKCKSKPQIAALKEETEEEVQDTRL

SMILES | EC50 [nM] | HBE Max Activity | HBE Activity at 10 μM
Cc1cccc(C)c1-c1cc2nc(n1)NS(=O)(=O)c1cccc(c1)C(=O)N(C1CC3(CC(N4C[C@@H](C)O[C@@H](C)C4)C3)C1)[C@H](CC(C)(C)C)CO2 (single isomer, unassigned) [Compound 86] | < 1000 | +++ (+++ is >60%) | 
Cc1cccc(C)c1-c1cc2nc(n1)NS(=O)(=O)c1cccc(c1)C(=O)N(C1CC3(CC(N4C[C@@H](C)O[C@@H](C)C4)C3)C1)[C@H](CC(C)(C)C)CO2 (single isomer, unassigned) [Compound 87] | < 1000 | +++ (+++ is >60%) | 
Cc1cccc(C)c1-c1cc2nc(n1)NS(=O)(=O)c1cccc(c1)C(=O)N([C@H]1C[C@](C)(O)C1)[C@H](CC(C)(C)C)CO2 (single isomer, unassigned) [Compound 139] | < 1000 | +++ (+++ is >60%) | 
Cc1cccc(C)c1-c1cc2nc(n1)NS(=O)(=O)c1cccc(c1)C(=O)N([C@H]1C[C@@](O)(Cc3ccccc3)C1)[C@H](CC(C)(C)C)CO2 (single isomer, unassigned) [Compound 140] | < 1000 | +++ (+++ is >60%) | 
Cc1cccc(C)c1-c1cc2nc(n1)NS(=O)(=O)c1cccc(c1)C(=O)N([C@H]1C[C@@]3(CCCN(C(=O)CO)C3)C1)[C@H](CC(C)(C)C)CO2 (single isomer, unassigned) [Compound 144] | < 1000 | +++ (+++ is >60%) | 
Cc1cccc(C)c1-c1cc2nc(n1)NS(=O)(=O)c1cccc(c1)C(=O)N([C@H]1C[C@@]3(CCCN(C(=O)CO)C3)C1)[C@H](CC(C)(C)C)CO2 (single isomer, unassigned) [Compound 145] | < 1000 | +++ (+++ is >60%) | 
Cc1cccc(C)c1-c1cc2nc(n1)NS(=O)(=O)c1cccc(c1)C(=O)N(C1CC3(CC(N4CCOCC4)C3)C1)[C@H](CC(C)(C)C)CO2 (single isomer, unassigned) [Compound 432] | < 1000 | +++ (+++ is >60%) | 
Cc1cccc(C)c1-c1cc2nc(n1)NS(=O)(=O)c1cccc(c1)C(=O)N(C1CC3(CCCCN3C(=O)CO)C1)[C@H](CC(C)(C)C)CO2 (stereo in doubt) [Compound 203] |  |  | +++ (+++ is >60%)
Cc1cccc(C)c1-c1cc2nc(n1)NS(=O)(=O)c1cccc(c1)C(=O)N(C1CC3(CCCCN3C(=O)CO)C1)[C@H](CC(C)(C)C)CO2 (stereo in doubt) [Compound 204] |  |  | +++ (+++ is >60%)
Cc1cccc(C)c1-c1cc2nc(n1)NS(=O)(=O)c1cccc(c1)C(=O)N(C1CC3(CCCN3C(=O)CO)C1)[C@H](CC(C)(C)C)CO2 (stereo in doubt) [Compound 205] | < 1000 | +++ (+++ is >60%) | 
Cc1cccc(C)c1-c1cc2nc(n1)NS(=O)(=O)c1cccc(c1)C(=O)N(C1CC3(CCCN3C(=O)CO)C1)[C@H](CC(C)(C)C)CO2 (stereo in doubt) [Compound 206] | < 1000 | +++ (+++ is >60%) | 
Cc1cccc(C)c1-c1cc2nc(n1)NS(=O)(=O)c1cccc(c1)C(=O)N([C@H]1CC3(C[C@H](N(C)CCC(F)(F)F)C3)C1)[C@H](CC1(C(F)(F)F)CC1)CO2 (stereo in doubt) [Compound 219] |  |  | +++ (+++ is >60%)
Cc1cccc(C)c1-c1cc2nc(n1)NS(=O)(=O)c1cccc(c1)C(=O)N([C@H]1C[C@@]3(C[C@H](NCC(F)(F)F)C3)C1)[C@H](CC1(C(F)(F)F)CC1)CO2 (stereo in doubt) [Compound 220] | < 1000 | +++ (+++ is >60%) | 
Cc1cccc(CO)c1-c1cc2nc(n1)NS(=O)(=O)c1cccc(c1)C(=O)N([C@H]1CC3(C[C@H](NC(=O)OC(C)C)C3)C1)[C@H](CC(C)(C)C)CO2 (stereo in doubt) [Compound 402] |  |  | ++ (++ is 30-60%)
Cc1cccc(CO)c1-c1cc2nc(n1)NS(=O)(=O)c1cccc(c1)C(=O)N([C@H]1CC3(C[C@H](NC(=O)OC(C)C)C3)C1)[C@H](CC(C)(C)C)CO2 (stereo in doubt) [Compound 403] |  |  | ++ (++ is 30-60%)
Cc1cccc(C)c1-c1cc2nc(n1)NS(=O)(=O)c1cccc(c1)C(=O)N(C1CC3(C1)CC(O)(Cc1ccccc1)C3)[C@H](CC(C)(C)C)CO2 (stereo in doubt) [Compound 430] | < 1000 | +++ (+++ is >60%) | 
Cc1cccc(C)c1-c1cc2nc(n1)NS(=O)(=O)c1cccc(c1)C(=O)N(C1CC3(C1)CC(O)(Cc1ccccc1)C3)[C@H](CC(C)(C)C)CO2 (stereo in doubt) [Compound 431] | < 1000 | +++ (+++ is >60%) | 
Cc1cccc(C)c1-c1cc2nc(n1)NS(=O)(=O)c1cccc(c1)C(=O)N(C1CC(N3C[C@@H](C)O[C@@H](C)C3)C1)[C@H](CC(C)(C)C)CO2 (stereo in doubt) [Compound 434] |  |  | +++ (+++ is >60%)
Cc1cccc(C)c1-c1cc2nc(n1)NS(=O)(=O)c1cccc(c1)C(=O)N(c1cn[nH]c1)[C@H](CC(C)C)CO2 [Compound 99, (11R)-6-(2,6-Dimethylphenyl)-11-isobutyl-2,2-dioxo-12-(1H-pyrazol-4-yl)-9-oxa-2λ^6-thia-3,5,12,19-tetrazatricyclo[12.3.1.14,8]nonadeca-1(18),4(19),5,7,14,16-hexaen-13-one] | 3000 to 30000 | +++ (+++ is >60%) | 
Cc1cccc(C)c1-c1cc2nc(n1)NS(=O)(=O)c1cccc(c1)C(=O)N([C@H]1C[C@@H](N3CCOCC3)C1)[C@H](CC(C)(C)C)CO2 [Compound 178, (11R)-6-(2,6-Dimethylphenyl)-11-(2,2-dimethylpropyl)-12-(3-morpholinocyclobutyl)-2,2-dioxo-9-oxa-2λ^6-thia-3,5,12,19-tetrazatricyclo[12.3.1.14,8]nonadeca-1(18),4(19),5,7,14,16-hexaen-13-one] | < 1000 | +++ (+++ is >60%) | 
Cc1cccc(C)c1-c1cc2nc(n1)NS(=O)(=O)c1cccc(c1)C(=O)N(c1cn[nH]c1)[C@H](CC(C)(C)C)CO2 [Compound 185, (11R)-6-(2,6-Dimethylphenyl)-11-(2,2-dimethylpropyl)-2,2-dioxo-12-(1H-pyrazol-4-yl)-9-oxa-2λ^6-thia-3,5,12,19-tetrazatricyclo[12.3.1.14,8]nonadeca-1(18),4(19),5,7,14,16-hexaen-13-one] | < 1000 | +++ (+++ is >60%) | 
Cc1cccc(CO)c1-c1cc2nc(n1)NS(=O)(=O)c1cccc(c1)C(=O)N(C1CC3(CC(NC(=O)OC(C)C)C3)C1)[C@H](CC(C)(C)C)CO2 (stereo partly shown) [Compound 209] |  |  | ++ (++ is 30-60%)
Cc1cccc(C)c1-c1cc2nc(n1)NS(=O)(=O)c1cccc(c1)C(=O)N([C@H]1C[C@@]3(C[C@H](NCCC(F)(F)F)C3)C1)[C@H](CC1(C(F)(F)F)CC1)CO2 (stereo partly shown) [Compound 218] | < 1000 | +++ (+++ is >60%) | 
Cc1cccc(C)c1-c1cc2nc(n1)NS(=O)(=O)c1cccc(c1)C(=O)N([C@H]1C[C@@]3(C[C@H](N(C)CC(F)(F)F)C3)C1)[C@H](CC1(C(F)(F)F)CC1)CO2 (stereo partly shown) [Compound 221] | < 1000 | +++ (+++ is >60%) | 
Cc1cccc(C)c1-c1cc2nc(n1)NS(=O)(=O)c1cccc(c1)C(=O)N(C1CC3(CCN(c4ccccn4)CC3)C1)[C@H](CC(C)(C)C)CO2 [Compound 350] | < 1000 | +++ (+++ is >60%) | 
